Test results reported in patent publication US20120016009A1, “Optimized Methods For Delivery Of DSRNA Targeting The PCSK9 Gene” (priority 2008, published 2012).
In the oligonucleotide strings, read from the 5' end, every base follows the letter of its sugar. An asterisk marks phosphorothioate; unmarked linkages are phosphodiester. Other units and linkages are bracketed, terminal groups are in braces. A string of capitals states the bases alone. d = 2'-deoxy (DNA); m = 2'-O-methyl; r = 2'-OH (RNA)

Tested on: PCSK9 mRNA
Assay: PCSK9 siRNA screening in HepG2 cells (lipofectamine 2000 transfection, PCSK9 mRNA by Quantigene, normalized to GAP-DH)
Format: cell-based, human
Conditions: for Mean percent remaining mRNA transcript at siRNA concentration/in cell type 3 nM/HepG2: 3 nM siRNA; for Mean percent remaining mRNA transcript at siRNA concentration/in cell type 30 nM/HepG2: 30 nM siRNA
Summary of the method: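 PCSK9 silencing was assessed in HepG2 cells by lipofectamine 2000 siRNA transfection in 96-well plates. Twenty-four hours later, lysates were analyzed with the Quantigene Explore Kit, with PCSK9 signal normalized to GAP-DH. Eight datapoints were collected per siRNA, and remaining transcript was expressed as a percentage of cells treated with an unrelated control siRNA duplex.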

Substance	IC50 [nM]	Mean percent remaining mRNA transcript at siRNA concentration/in cell type 3 nM/HepG2 [%]	Mean percent remaining mRNA transcript at siRNA concentration/in cell type 30 nM/HepG2 [%]	Mean percent remaining mRNA transcript at siRNA concentration/in cell type 100 nM/HepG2 (100 nM siRNA) [%]
AD-9731: PCSK9 siRNA (sense mUrGrGmUrGrArArGrAmUrGrArGmUrGrGmCrGrAdT*dT; antisense rUrCrGrCmCrArCrUmCrArUrCrUrUmCrArCmCrAdT*dT)	0.32	31	31	–
AD-9623: PCSK9 siRNA (sense rGrUrCrArGrCrUrCrCrArGrGrCrGrGrUrCrCrUdT*dT; antisense rArGrGrArCrCrGrCrCrUrGrGrArGrCrUrGrArCdT*dT)	–	–	66	43
AD-9315: PCSK9 siRNA (sense rGrCrGrGrCrArCrCrCrUrCrArUrArGrGrCrCrUdT*dT; antisense rArGrGrCrCrUrArUrGrArGrGrGrUrGrCrCrGrCdT*dT)	0.98	32	15	–
AD-9546: PCSK9 siRNA (sense rUrArGrCrCrUrUrGrCrGrUrUrCrCrGrArGrGrAdT*dT; antisense rUrCrCrUrCrGrGrArArCrGrCrArArGrGrCrUrAdT*dT)	–	–	32	–
AD-9740: PCSK9 siRNA (sense rGrGmCrArAmCmUmUmCmCrGrGrGrAmCrGrAmUrGdT*dT; antisense mCrArUrCrGrUrCrCrCrGrGrArArGrUrUrGrCrCdT*dT)	–	–	198	–
AD-9618: PCSK9 siRNA (sense rGrArGrCrArUrGrGrArArUrCrCrCrGrGrCrCrCdT*dT; antisense rGrGrGrCrCrGrGrGrArUrUrCrCrArUrGrCrUrCdT*dT)	–	–	90	–
AD-9665: PCSK9 siRNA (sense GGuGGAGGuGuAucuccuATsT; antisense uAGGAGAuAcACCUCcACCTsT; as printed in the source, key not given here)	–	–	83	–
AD-9760: PCSK9 siRNA (sense mCmUmCmUrGmUmUrGmCmCmUmUmUmUmUrAmCrArGdT*dT; antisense rCrUrGmUrArArArArArGrGmCrArAmCrArGrArGdT*dT)	–	27	14	–
AD-9555: PCSK9 siRNA (sense rGrUrCrArGrGrArGrCrCrGrGrGrArCrGrUrCrAdT*dT; antisense rUrGrArCrGrUrCrCrCrGrGrCrUrCrCrUrGrArCdT*dT)	–	–	34	–
AD-9682: PCSK9 siRNA (sense uGGuGGAGGuGuAucuccuTsT; antisense AGGAGAuAcACCUCcACcATsT; as printed in the source, key not given here)	–	–	38	–
AD-9577: PCSK9 siRNA (sense rCrArCrCrArArGrGrArGrGrCrArGrGrArUrUrCdT*dT; antisense rGrArArUrCrCrUrGrCrCrUrCrCrUrUrGrGrUrGdT*dT)	–	31	33	–
AD-9729: PCSK9 siRNA (sense mUmUmUmCmUrGrGrAmUrGrGmCrAmUmCmUrArGmCdT*dT; antisense rGrCmUrArGrArUrGrCmCrArUrCmCrArGrArArAdT*dT)	–	–	56	–
AD-9580: PCSK9 siRNA (sense rCrCrUrGrCrGrCrGrUrGrCrUrCrArArCrUrGrCdT*dT; antisense rGrCrArGrUrUrGrArGrCrArCrGrCrGrCrArGrGdT*dT)	–	–	112	–
AD-9694: PCSK9 siRNA (sense rGmUmUrGrArGrGmCrArGrArGrAmCmUrGrAmUmCdT*dT; antisense rGrArUmCrArGrUrCrUrCrUrGrCrCrUmCrArArCdT*dT)	–	–	52	–
